Results on one compound are retold here after PMC9598407, “Identification of Staphylococcus aureus Penicillin Binding Protein 4 (PBP4) Inhibitors” (Antibiotics, 2022).

What is called pIC50 is the negative decadic logarithm of the IC50, by convention in mol/L.

Assay [1] has as its system pbp4 expression in S. aureus USA300. Briefly: qRT-PCR of pbp4 transcript titers, USA300. Type of assay: cell-based, Staphylococcus aureus. As to conditions: 25 µM compound, 3 h. The source says:
Given that each of the six compounds appeared to affect PBP4-mediated antibiotic resistance, we considered that their effects may be modulated by either inhibiting the protein’s function or by reducing pbp4 expression, the latter of which may be readily overcome by regulatory mutations that could in-turn easily result in resistance. Thus, we sought to prioritize compounds that may affect the protein’s function and de-prioritize compounds that affect the protein’s expression. Quantitative real-time reverse transcriptase PCR (qRT-PCR) was used to measure the pbp4 transcript titers within USA300 and CRB cells following compound treatment (Figure 2). […] We chose to focus the remainder of our studies on 9314848 (Figure 3A) because the molecule appeared the more druggable and chemically tractable for downstream structure activity relationship studies.
PBP4 transcript titers of bacterial cells exposed to putative PBP4 inhibitors were measured using real time quantitative PCR (RT-qPCR), as previously described. […] Bacterial RNA was amplified and measured using PerfeCTa SYBR Green FastMix and qScript cDNA SuperMix kits following the manufacturer’s recommendations (QuantaBio, Beverly, MA, USA). […]

The target in assay [2] is recombinant Bacillus subtilis PBP4 (Bacillus subtilis, UniProt P40750). Briefly: BOCILLIN FL fluorescence polarization displacement assay, PBP4. Type of assay: binding. The procedure: To more directly evaluate whether 9314848 is likely to affect PBP4 function, the compound’s ability to bind recombinant PBP4 was measured using BOCILLIN FL fluorescence polarization displacement assays. The premise for the assay is that the fluorescence polarization of the fluorescently labeled β-lactam, penicillin V (BOCILLIN FL), will increase upon binding to its cognate target (i.e., PBP4). Further, compounds that bind PBP4 and inhibit its function would impede BOCILLIN FL binding thereby allowing us to assess the protein binding affinity of 9314848 using a simple fluorescence reduction assay.
Chain of recombinant Bacillus subtilis PBP4 (P40750 22-624): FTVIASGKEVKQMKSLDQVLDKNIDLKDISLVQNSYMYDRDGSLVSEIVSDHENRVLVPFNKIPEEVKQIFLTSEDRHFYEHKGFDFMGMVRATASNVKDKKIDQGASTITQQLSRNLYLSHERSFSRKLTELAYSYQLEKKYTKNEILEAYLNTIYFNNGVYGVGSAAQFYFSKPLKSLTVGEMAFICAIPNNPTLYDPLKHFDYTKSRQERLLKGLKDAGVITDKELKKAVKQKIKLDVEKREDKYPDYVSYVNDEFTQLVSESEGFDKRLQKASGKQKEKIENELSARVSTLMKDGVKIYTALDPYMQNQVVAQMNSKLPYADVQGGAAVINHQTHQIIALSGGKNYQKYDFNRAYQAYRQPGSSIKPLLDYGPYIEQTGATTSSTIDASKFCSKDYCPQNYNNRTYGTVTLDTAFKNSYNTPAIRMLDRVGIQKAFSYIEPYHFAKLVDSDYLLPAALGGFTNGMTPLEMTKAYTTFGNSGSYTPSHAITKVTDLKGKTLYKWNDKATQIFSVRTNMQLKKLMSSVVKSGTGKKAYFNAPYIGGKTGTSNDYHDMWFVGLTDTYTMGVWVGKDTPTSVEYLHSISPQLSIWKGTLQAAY
To determine whether the assay is amenable to measuring the binding properties of a compound that is known to bind PBP4 vs. a compound that is not expected to bind the protein we performed fluorescence polarization assays in which PBP4 was preincubated with either the β-lactam ampicillin, or the aminoglycoside kanamycin.
A dose response study was conducted (Figure 4B) in which PBP4 was preincubated with 0, 3.125, 6.25, 12.5, 25, or 50 µM of ampicillin, kanamycin, or 9314848.
First, fluorescence polarization assays were performed as previously described, but with minor modifications. Briefly, the indicated amount of the putative PBP4 inhibitor or control antibiotic was incubated with 1 µM recombinant B. subtilis PBP4 or S. aureus PBP2a in potassium phosphate buffer (40 mM K2HPO4 and 10 mM KH2PO4) for 1 h in black 96-well microtiter plates (Corning Life Sciences, Corning, NY, USA). Following incubation, 1 µM (final concentration) BOCILLIN FL penicillin was added, and the mixture was incubated for 30 min. BOCILLIN FL fluorescence polarization was measured at (495 nm excitation and 545 nm emission) in a SpectraMax M5 multimode plate reader (Molecular Devices, San Jose, CA, USA). […] The resulting data were plotted as percentage BOCILLIN FL binding inhibition = (T/U) × 100; T = FL polarization of ((PBP4+ BOCILLIN FL) − (PBP4+ BOCILLIN FL + inhibitor compound)), U = FL polarization of ((PBP4 + BOCILLIN FL) − (BOCILLIN FL)). Second, gel electrophoresis and fluorescence detection was used to measure BOCILLIN FL labeling of PBP4 treated with the known PBP4 inhibitor cefoxitin (positive control), kanamycin (negative control) or 9314848 (test compound), as previously described but with minor modifications. Briefly, 1 µM of recombinant PBP4 was mixed with 0, 50, 500, 2000, or 5000 µM 9314848 or control antibiotic in 50 mM phosphate buffer (pH 7.4) and incubated at 37 °C for 30 min. Next 40 μM of BOCILLIN FL was added to the reaction mixture and incubated for an additional 30 min at 37 °C. Reactions were stopped by adding 5× SDS-PAGE gel loading dye, heated at 100 °C for 3 min and separated by electrophoresis in 12% SDS-PAGE (2 h, 120 Volts). BOCILLIN FL labeled PBP4 was imaged at λ = 365 nm using a BioRad Gel Doc EZ Imaging system and the gel was then subsequently stained with Bio-safe Coomassie Brilliant Blue stain (BioRad, Hercules, CA, USA) to measure the amount of protein present in each reaction condition and analyzed using NIH-ImageJ software. The percent BOCILLIN FL binding was calculated by first normalizing the protein present in each reaction condition to that of untreated control and subsequently applying each reaction’s protein normalization factor to each reaction’s fluorescent signal. The percentage BOCILLIN FL binding inhibition was then calculated as the normalized band intensity of antibiotic/compound treated sample as compared to the control sample (PBP4 + BOCILLIN FL in the absence of compound).
For orientation: Fluorescence polarisation rises when a labelled molecule tumbles more slowly, as on binding a larger partner.

pIC50: −log10 of the molar value. “Also recorded” adds a separate entry of the source.

For the compound `CC1CCN(C(=O)c2cccc(NC(=O)Nc3ccc(Cl)cc3)c2)CC1` [Compound 9314848], the “pbp4 expression (mRNA titer, qRT-PCR)” value in assay [1] is “did not seem to affect pbp4 expression; also recorded: did not significantly impact pbp4 transcription”. In addition, the “Binding to PBP4 at low concentration” value in assay [2] (3.125 µM and 6.25 µM) was “Minimal binding”. Moreover, the “Reduction of BOCILLIN FL binding to PBP4” value in assay [2] (50 µM compound, fluorescence polarization) is given as ~ 66%. The “Effect of preincubation on BOCILLIN FL binding to PBP4 (fluorescence polarization)” value in assay [2] (50 µM, 1 µM PBP4) is listed as “limited fluorescence polarization”. For the same compound, the negative-log IC50 (pIC50) in assay [2] (fluorescence polarization dose response 0-50 µM, read-out: IC50, PBP4 BOCILLIN FL binding inhibition) is 4.87.
